The subject of one assay is Staphylococcus aureus. The experiment in a line: Efficacy in Staph. aureus infection of the mouse. The assay is classed as in vivo, Maus. The following applies: mouse infected with Staphylococcus aureus.
Another assay deals with Bacteroides fragilis. The experiment in a line: MIC, agar dilution test (Multipoint-Inokulator Denley, Isosensitest-Agar). In kind it is cell-based.
The test system of another assay is Bact. thetaiotaomicron. The assay is described as above. The following applies: Bacteroides thetaiotaomicron, DSM2079, Stamm DSM 2079, read-out: MHK-Werte. In kind it is cell-based.
The next assay concerns Clostridium perfringens. Put plainly: microbe, parasite or virus in culture. In kind it is cell-based. The settings on record: read-out: MHK-Werte.
Setting [1] is: DSM2151, Stamm DSM 2151, Isosensitest-Agar, read-out: MHK-Werte.
Setting [2] is: Stamm ES 25, Isosensitest-Agar, read-out: MHK-Werte.

≈ marks a conversion by molar mass, not a printed value. Read-outs that look alike come from different tables or passages of the source.

For `CC(=O)CCN1CCO[C@H]2CN(c3c(F)cc4c(=O)c(C(=O)O)cn(C5CC5)c4c3F)C[C@H]21` (racemic) [Beispiel 31, 1-Cyclopropyl-6,8-difluor-1,4-dihydro-4-oxo-7-(cis-5-[3-oxo-1-butyl]-2-oxa-5,8-diazabicyclo[4.3.0]non-8-yl)-3-chinolincarbonsäure], the “Wirksamkeit in der Staph. aureus-Infektion an der Maus” value (“Wirksamkeit” for short) in the assay with Staphylococcus aureus (p.o.) and in the assay on Staphylococcus aureus (s.c.) was 10 mg/kg throughout.

Regarding `O=C(O)c1cn(C2CC2)c2c(Cl)c(N3C[C@@H]4CCCN[C@@H]4C3)c(F)cc2c1=O` [A, 8-Chlor-1-cyclopropyl-7-([S,S]-2,8-diazabicyclo[4.3.0]non-8-yl)-6-fluor-1,4-dihydro-4-oxo-3-chinolincarbonsäure], the results for the MIC with Bacteroides fragilis (setting [1]), in the assay with Bacteroides fragilis (setting [2]) and with Bact. thetaiotaomicron were 0.25 µg/mL (≈ 0.616 µM), 0.25 µg/mL (≈ 0.616 µM) and 0.5 µg/mL (≈ 1.23 µM), respectively.

Regarding `CN1CCC2CN(c3c(F)cc4c(=O)c(C(=O)O)cn(C5CC5)c4c3Cl)CC21` (stereo not shown) [B], the MIC is 0.5 µg/mL (≈ 1.23 µM) with Bacteroides fragilis (setting [1]), 1 µg/mL (≈ 2.46 µM) in the assay on Bacteroides fragilis (setting [2]), 0.5 µg/mL (≈ 1.23 µM) in the assay with Clostridium perfringens and 2 µg/mL (≈ 4.93 µM) in the assay with Bact. thetaiotaomicron.

Regarding `CC(=O)CCN1CCC[C@H]2CN(c3c(F)cc4c(=O)c(C(=O)O)cn(C5CC5)c4c3F)C[C@H]21` [Beispiel 27, 1-Cyclopropyl-6,8-difluor-1,4-dihydro-4-oxo-7-([S,S]-2-[3-oxo-1-butyl]-2,8-diazabicyclo[4.3.0]non-8-yl)-3-chinolincarbonsäure], the entries for the “Wirksamkeit” value in the assay on Staphylococcus aureus (p.o.) and with Staphylococcus aureus (s.c.) were 10 mg/kg and 2,5 mg/kg, respectively.

Regarding `CC(=O)CCN1CCC[C@H]2CN(c3c(F)cc4c(=O)c(C(=O)O)cn(C5CC5)c4c3Cl)C[C@H]21` [Beispiel 29A, 8-Chlor-1-cyclopropyl-6-fluor-1,4-dihydro-4-oxo-7-([S,S]-2-[3-oxo-1-butyl]-2,8-diazabicyclo[4.3.0]non-8-yl)-3-chinolincarbonsäure], the “Wirksamkeit” value with Staphylococcus aureus (p.o.) and in the assay on Staphylococcus aureus (s.c.) was 5 mg/kg each time.

Turning to `N#CCCN1CCC[C@H]2CN(c3c(F)cc4c(=O)c(C(=O)O)cn(C5CC5)c4c3Cl)C[C@H]21` [Beispiel 33, 8-Chlor-7-([S,S]-2-[2-cyanoethyl]-2,8-diazabicyclo[4.3.0]non-8-yl)-1-cyclopropyl-6-fluor-1,4-dihydro-4-oxo-3-chinolincarbonsäure], the results for the “Wirksamkeit” value in the assay on Staphylococcus aureus (p.o.) and in the assay with Staphylococcus aureus (s.c.) were 10 mg/kg and 5 mg/kg, respectively.

For `COC(=O)C=C(C(=O)OC)N1CCC[C@H]2CN(c3c(F)cc4c(=O)c(C(=O)O)cn(C5CC5)c4c3Cl)C[C@H]21` [Beispiel 35, 8-Chlor-1-cyclopropyl-7-[2-(1,2-bis-methoxycarbonyl-vinyl)-1S,6S-2,8-diazabicyclo[4.3.0]non-8-yl]-6-fluor-1,4-dihydro-4-oxo-3-chinolincarbonsäure], the “Wirksamkeit” value with Staphylococcus aureus (p.o.) and in the assay with Staphylococcus aureus (s.c.) was 2,5 mg/kg throughout.

As to `O=C(O)c1cn(C2CC2)c2cc(N3CCNCC3)c(F)cc2c1=O` [Ciprofloxacin], the “Wirksamkeit” value with Staphylococcus aureus (p.o.) and in the assay on Staphylococcus aureus (s.c.) was 80 mg/kg each time. In addition, the MIC amounted to 4 µg/mL (≈ 12.1 µM) with Bacteroides fragilis (DSM2151, read-out: MHK-Werte); 8 µg/mL (≈ 24.1 µM) in the assay with Bacteroides fragilis (read-out: MHK-Werte); 8 µg/mL (≈ 24.1 µM) in the assay on Bact. thetaiotaomicron.

These data come from patent publication EP0550903A1, “Quinolone- and naphthyridone carboxylic acid derivatives as antibacterial agents” (BAYER AG, priority 1992, dated 1993).
